From patent US20200054057A1, “USE OF ACETYLENIC FATTY ACID COMPOUNDS AS KOKUMI FLAVOR” (Takasago International Corporation, priority 2017, published 2020)
Entries after “also recorded” stand apart in the source; their conditions may differ.

Legend:
trained sensory panel [1] = assay: Taste recognition thresholds for kokumi/mouthfulness enhancement, duo-trio tests in chanterelle flavor recombinant; format: in vivo, human; conditions: for Kokumi threshold: in recombinant chanterelle flavor, pH 5.8, duo-trio test; for Kokumi effect (in words): vis-à-vis recombinant chanterelle flavor
Experimental: An artificial chanterelle flavor recombinant was used as a reference flavor for determining the flavor-enhancing effect of the compounds to be tested. The pH value was adjusted to 5.8 with trace amounts of formic acid: Seventeen trained assessors (ten women and seven men, ages 23-30) were recruited from the Chair of Food Chemistry and Molecular Sensory Science (TUM). The sensory sessions were performed at 22° C. in air-conditioned sensory booths. To prevent cross-modal interactions with odorants, the panelists used nose-clips. Furthermore the light in the sensory booths was adjusted to yellow in order to eliminate optical differences between the samples. The taste threshold concentrations of the purified compounds were determined in the above-described chanterelle flavor recombinant using duo-trio-tests. The pH value of the individual samples and blanks was adjusted to 5.8 by adding trace amounts of formic acid. The samples were presented in serial 1:2 dilutions in order of increasing concentrations to the trained panel and the panelists were asked to mark the sample differing from the recombinant which was used as constant reference (one sample was identical to the reference, one sample was different). The threshold value of the sensory panel was approximated by averaging the threshold values of the individual panelists in two independent sessions.

trained sensory panel [2] = assay: Intrinsic taste recognition thresholds, three-alternative forced choice tests in 1% ethanol; format: in vivo, human; conditions: in 1% ethanol/water; for Intrinsic taste threshold: three-alternative forced choice; for Intrinsic taste quality: taste recognized at threshold
Experimental: Seventeen trained assessors (ten women and seven men, ages 23-30) were recruited from the Chair of Food Chemistry and Molecular Sensory Science (TUM). The sensory sessions were performed at 22° C. in air-conditioned sensory booths. To prevent cross-modal interactions with odorants, the panelists used nose-clips. Furthermore the light in the sensory booths was adjusted to yellow in order to eliminate optical differences between the samples. The human recognition thresholds for the intrinsic taste of the purified compounds were determined by means of three-alternative forced choice tests in 1% ethanol. Serial 1:2 dilutions of the sample were presented in order of increasing concentrations to the panelists using the sip-and-spit-method. The geometric mean of the last and the next-to-last concentrations were calculated and taken as the individual recognition threshold. The threshold values evaluated in two different sessions were averaged.

Compound | Kokumi threshold (trained sensory panel [1]) | Intrinsic taste threshold (trained sensory panel [2]) | Kokumi effect (in words) (trained sensory panel [1]) | Intrinsic taste quality (trained sensory panel [2])
O=C(O)CCCCCCC/C=C\CC#CC(O)/C=C/C(O)CO (stereo not drawn) [Compound 1, (9Z,15E)-14,17,18-trihydroxy-9,15-octadecadien-12-ynoic acid] | 59 µmol/L | >1000 µmol/L |  | 
O=C(O)CCCCCCC/C=C\C=C/CC(O)CCC(O)CO (stereo not drawn) [Compound 2, (9Z,11Z)-14,17,18-trihydroxy-9,11-octadecadienoic acid] |  | 331 µmol/L | did not exhibit a kokumi effect; also recorded: do not exhibit a kokumi flavor | [bitter]
O=C(O)CCCCCCC/C=C\C=C/CC(O)CCCCO (stereo not drawn) [Compound 3, (9Z,11Z)-14,18-dihydroxyoctadeca-9,11-dienoic acid] |  | 281 µmol/L | did not exhibit a kokumi effect; also recorded: do not exhibit a kokumi flavor | [bitter]
CCC/C=C\C#C/C=C/C(O)CCCCCCCC(=O)O (stereo not drawn) [Compound 4, (10E,14Z)-9-hydroxy-10,14-octadecadien-12-ynoic acid] | 69 µmol/L | 320 µmol/L |  | [astringent]
CC/C=C/C(=O)C#CC/C=C\CCCCCCCC(=O)O [Compound 5, (9Z,15E)-14-oxo-9,15-octadecadien-12-ynoic acid] | 19 µmol/L | 228 µmol/L |  | [pungent]
CCC/C=C\C#C/C=C/C(=O)CCCCCCCC(=O)O [Compound 6, (10E,14Z)-9-oxo-10,14-octadecadien-12-ynoic acid] | 79 µmol/L | 639 µmol/L |  | [astringent]
CCC/C=C\CC(O)/C=C/CCCCCCCCC(=O)O (stereo not drawn) [Compound 8, (10E,14Z)-12-hydroxy-10,14-octadecadienoic acid] |  | 297 µmol/L | did not exhibit a kokumi effect; also recorded: do not exhibit a kokumi flavor | [bitter]
CC/C=C/C(=O)C#CC/C=C\CCCCCCCC(=O)OC [Compound 9, (9Z,15E)-14-oxo-9,15-octadecadien-12-ynoic acid methyl ester] | 59 µmol/L |  |  | 
CCC/C=C\C#C/C=C/C(CCCCCCCC(=O)O)OO (stereo not drawn) [Compound 10, (10E,14Z)-9-hydroperoxy-10,14-octadecadien-12-ynoic acid] | 38 µmol/L | 536 µmol/L |  | [bitter]
CCC/C=C\C#CC/C=C\CCCCCCCC(=O)O [Compound 11, 14,15-dehydrocrepenynic acid] | 105 µmol/L | 531 µmol/L |  | [bitter]
CCC/C=C\C#CC/C=C\CCCCCCCC(=O)OC [Compound 12, 14,15-dehydrocrepenynic acid methyl ester] | 32 µmol/L | 648 µmol/L |  | [astringent]
CCC/C=C\C#CC/C=C\CCCCCCCC(=O)OCC [Compound 13, 14,15-dehydrocrepenynic acid ethyl ester] | 59 µmol/L | 512 µmol/L |  | [astringent]
CCCCCC/C=C/C#CCCCCCCCC(=O)O [ximenynic acid, 11E-octadecen-9-ynoic acid, reference compound] | 84 µmol/L | 482 µmol/L |  | [bitter]
